Earlier results in patent US8921533B2, “Glycosylated valproic acid analogs and uses thereof” (Chromatin Technologies, priority 2011, dated 2014).
Read-outs that look alike come from different tables or passages of the source.

Tested on: sensitised guinea pig tracheal rings
Conditions: also contraction induced by histamine, 5-hydroxytryptamine and carbachol

Row | Compound | inhibition of antigen-induced contraction of tracheal rings (1 mM) | inhibition of antigen-induced contraction of tracheal rings (100 microM)
1 | CCCC(=O)[O-].[Na+] [sodium butyrate] | weak inhibitors | 
2 | CCCC(CCC)C(=O)[O-].[Na+] [sodium valproate] |  | weak inhibitors
